Literature values in patent US12410474B2, “Methods, kits, and devices for diagnosing, prognosing, and treating psychiatric disorders in a patient” (Northwestern University, priority 2014, dated 2025).

Assays:
[1] = tested on: HTR2C Ser23 and Cys23 isoreceptors; settings: after prolonged pre-exposure to serotonin
HTR2C = target: T1, HTR2C (Homo sapiens, UniProt P28335)
T1 sequence (P28335 33-458): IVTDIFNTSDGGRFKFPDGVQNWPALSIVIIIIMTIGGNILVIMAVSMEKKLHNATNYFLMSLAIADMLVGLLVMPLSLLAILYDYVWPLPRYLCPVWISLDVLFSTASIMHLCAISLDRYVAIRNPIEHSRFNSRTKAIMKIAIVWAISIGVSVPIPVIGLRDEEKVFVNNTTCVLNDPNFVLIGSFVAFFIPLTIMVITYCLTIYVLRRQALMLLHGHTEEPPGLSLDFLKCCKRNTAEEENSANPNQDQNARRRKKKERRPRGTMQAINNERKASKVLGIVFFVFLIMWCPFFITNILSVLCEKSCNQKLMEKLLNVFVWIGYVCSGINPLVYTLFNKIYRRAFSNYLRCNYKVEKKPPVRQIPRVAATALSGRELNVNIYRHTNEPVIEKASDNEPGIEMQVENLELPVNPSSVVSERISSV

HTR2A = HTR2A (Homo sapiens, UniProt P28223)
Sequence of HTR2A (P28223 whole entry): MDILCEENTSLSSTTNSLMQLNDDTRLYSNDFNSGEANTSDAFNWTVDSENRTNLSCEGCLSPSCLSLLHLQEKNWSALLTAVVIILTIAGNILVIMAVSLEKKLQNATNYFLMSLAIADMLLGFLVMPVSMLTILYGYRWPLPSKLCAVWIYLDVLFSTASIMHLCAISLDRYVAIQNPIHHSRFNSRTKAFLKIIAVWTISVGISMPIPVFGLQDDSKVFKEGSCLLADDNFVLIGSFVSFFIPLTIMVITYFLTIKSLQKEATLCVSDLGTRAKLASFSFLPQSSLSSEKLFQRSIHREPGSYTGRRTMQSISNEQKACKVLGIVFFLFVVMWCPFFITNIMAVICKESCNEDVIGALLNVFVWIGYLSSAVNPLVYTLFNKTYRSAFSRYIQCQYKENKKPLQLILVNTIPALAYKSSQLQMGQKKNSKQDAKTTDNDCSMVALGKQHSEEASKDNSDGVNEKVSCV

| Structure (SMILES) | functional activity at HTR2C (HTR2C) | also measured |
| --- | --- | --- |
| Cn1ccc2cc3c(cc21)CCN3C(=O)Nc1cccnc1 [SB206553] |  | cell surface expression in Ser-receptors versus Cys-receptors [1]: greater cell surface expression; resensitization in Ser-receptors versus Cys-receptors [1]: more rapid resensitization |
| CN(C)CCCN1c2ccccc2Sc2ccc(Cl)cc21 [chlorpromazine] | neutral antagonists |  |
| Cc1nc2n(c(=O)c1CCN1CCC(c3noc4cc(F)ccc34)CC1)CCCC2 [risperidone] | potent inverse agonists |  |
| O=C1NCCN1CCN1CCC(c2cn(-c3ccc(F)cc3)c3ccc(Cl)cc23)CC1 [sertindole] | potent inverse agonists | functional activity at HTR2A (HTR2A): potent inverse agonists |
| O=C(CCCN1CCC2(CC1)C(=O)NCN2c1ccccc1)c1ccc(F)cc1 [spiperone] | neutral antagonists |  |
| CSc1ccc2c(c1)N(CCC1CCCCN1C)c1ccccc1S2 (stereo not drawn) [thioridazine] | neutral antagonists |  |
| CN1CCN(CC/C=C2/c3ccccc3Sc3ccc(S(=O)(=O)N(C)C)cc32)CC1 [thiothixene] | neutral antagonists |  |
